From article PMC10787068, “Targeting the Mitochondrial Chaperone TRAP1 Alleviates Vascular Pathologies in Ischemic Retinopathy” (Advanced Science, 2023)
“Also recorded” adds a separate entry of the source. Non-standard residues stand in square brackets, D forms with d. Residues, ends and D or L forms follow the SMILES beside them. *: point of attachment. Nle = CCCC[C@H](N)C(=O)O; Cbz = O=C(OCc1ccccc1)*

Experiments:
Format in all cases: cell-based, human
HIF1α = HIF1α degradation in MIO‐M1 cells under hypoxia (western blotting); settings: western blotting; for effect of co-treatment on HIF1α degradation triggered by TRAP1 inhibition: MIO‐M1 cells with gamitrinib or MitoQ, 6 h, hypoxia, BAPTA 10 µM, ALLN 10 µM
MIO‐M1 cells = assay: Cytoplasmic calcium (Fluo‐4 AM) in MIO‐M1 cells; settings: Fluo‐4 AM‐labeled MIO‐M1 cells under hypoxia; MitoQ 6 h, thapsigargin 30 min
Experimental: (§1) Figure 5 TRAP1 inhibition induces mPTP opening, mitochondrial calcium discharge, and calpain‐1 activation. A) Visualization of cytoplasmic calcium. Fluo‐4 AM‐labeled MIO‐M1 cells were incubated with the TRAP1 inhibitors gamitrinib and MitoQ^[ [32], [41] ^] for 6 h or thapsigargin for 30 min under hypoxia, and analyzed by confocal microscopy. Scale bars, 10 µm and 2 µm (inset). […] MIO‐M1 cells were treated with a TRAP1 inhibitor, 3 µM gamitrinib or 0.5 µM MitoQ, for 6 h under hypoxia (n = 4). Enzyme activity was measured using a fluorogenic calpain substrate as described in the Experimental Section. C) Restored HIF1α expression upon CypD inhibition. MIO‐M1 cells were incubated with control or CypD‐targeting siRNAs, treated with the TRAP1 inhibitor MitoQ for 6 h under hypoxia, harvested, and analyzed by western blotting. Black and red arrows indicate pro and autolyzed forms of calpain‐1, respectively. […] MIO‐M1 cells were incubated with TRAP1‐targeting siRNAs for 48 h, exposed to hypoxia for 6 h, harvested, and analyzed by qPCR (n = 4). […] Cells were then analyzed by flow cytometry to detect cytoplasmic calcium. […] MIO‐M1 cells were incubated with TRAP1 inhibitors, 3 µM gamitrinib, and 0.5 µM MitoQ, and a cell‐permeable calcium chelator, BAPTA (10 µM), for 6 h as indicated under hypoxia and analyzed by western blotting. […] Data information: Data are expressed as mean ± SEM. […]

calpain‐1 = assay: Calpain‐1 activation (autolysis, western blotting) in MIO‐M1 cells; settings: MIO‐M1 cells with 3 µM gamitrinib or 0.5 µM MitoQ, 6 h, hypoxia; BAPTA 10 µM, ALLN 10 µM
Experimental: as §1

cytoplasmic Hsp90 = assay: Cytoplasmic Hsp90 inhibition in MIO-M1 cells (western blotting); settings: 6 hr
Experimental: Cells and tissue samples were lysed using RIPA buffer (50 mM Tris, pH 8.0, 150 mM NaCl, 1% NP‐40, and 0.25% N‐deoxycholate) containing protease and phosphatase inhibitor cocktails (Roche). Lysates were separated by SDS‐PAGE and transferred to PVDF membranes. The membranes were blocked with 10% skim milk prepared in TBST (TBS (50 mM Tris and 150 mM NaCl, pH 7.6) containing 0.05% Tween‐20) for 1 h at RT and incubated with primary antibodies in antibody diluent solution (TBS containing 3 mM sodium azide and 0.1% BSA) overnight at 4 °C. After washing with TBST, the membranes were incubated with secondary antibodies for 1 h in 10% skim milk prepared in TBST. Finally, the membranes were washed three times with TBST, treated with ECL solution (Bio‐Rad; Hercules, CA, USA), and analyzed using a LAS4000 system (GE Healthcare; Chicago, IL, USA).
inhibitor) and gamitrinib as indicated for 6 hr, harvested, and analyzed by western blotting.
C) Cytoplasmic Hsp90 inhibition. MIO-M1
cells were incubated with DMAG (an Hsp90 inhibitor) as indicated for 6 hr under normoxia
or hypoxia and analyzed by western blotting.

calpain = assay: Calpain activity assay in MIO‐M1 cells; settings: 3 µM gamitrinib or 0.5 µM MitoQ, 6 h under hypoxia, fluorogenic calpain substrate, n = 4
Experimental: as §1

Trap1 KO MIO-M1 cells = assay: TRAP1 inhibitor effects in Trap1 KO MIO‐M1 cells
Experimental: MIO‐M1 Trap1 KO cell lines were generated using CRISPR/Cas9‐derived RNA‐guided endonucleases (Toolgen; Seoul, Republic of Korea). MIO‐M1 cells were co‐transfected with the Cas9 vector and TRAP1‐sgRNA expression vector (sgRNA sequence 1; 5′‐[…]‐3′ and sequence 2; 5′‐[…]‐3′) using jetPRIME transfection reagent (Polyplus; Illkirch‐Graffenstaden, France). Transfected cells were selected in culture medium containing […] puromycin (Sigma). Single‐cell colonies were collected using a cloning cylinder (I.D. × H 6.4 mm × 8 mm; Sigma) and analyzed using T7 endonuclease I to confirm Trap1 KO.
Supplementary Figure 16. Calpain-1 autolysis and HIF1α degradation in Trap1 […]
A) HIF1α degradation and calpain-1 autolysis in Trap1 knockout (KO) MIO-M1 cells. Trap1 KO MIO-M1 cells were generated as described in the Experimental Section and incubated in hypoxia for 6 hr, followed by analysis using western blotting. Under hypoxia, HIF1α degradation and autoproteolysis of calpain-1 were found in Trap1 KO MIO-M1 cells, when compared with wild type (WT) cells. […]
cell lines were established using MIO-M1 cells. WT and KO cells were incubated with MitoQ for 6 hr under hypoxia and analyzed by western blotting. Trap1 KO reduced the expression of […]
Quantification of the HIF1α protein level. HIF1α western blot density was analyzed and compared. Data are expressed as mean ± SEM from four independent experiments.
C) Cytoplasmic calcium concentration. WT and Trap1-KO MIO-M1 cells were labeled with […]
Fluo-4 AM, incubated with 3 μM gamitrinib or 1 μM MitoQ for 6 hr under hypoxia, collected, and analyzed by flow cytometry. Data information: Data are expressed as mean ± SEM.
Student t-test, ***P < 0.001; ns, not significant. […]

O=C(O)CCC(=O)O [succinate]
effect of co-treatment on HIF1α degradation triggered by TRAP1 inhibition (HIF1α): did not affect; also recorded: unaffected

C/C=C(/C)C(=O)O[C@H]1C(C)=C2[C@H]([C@@H]1OC(=O)CCCCCCC)[C@@](C)(OC(C)=O)C[C@H](OC(=O)CCC)[C@@]1(O)[C@H]2OC(=O)[C@@]1(C)O [thapsigargin]
cytoplasmic calcium (MIO‐M1 cells): substantial calcium release

CC(C)C[C@@H](C=O)NC(=O)[C@H](CC(C)C)NC(=O)[C@H](CC(C)C)NC(=O)OCc1ccccc1 [MG132] (Cbz-Leu-Leu-Leu-aldehyde)
effect of co-treatment on HIF1α degradation triggered by TRAP1 inhibition (HIF1α): completely restored; also recorded: completely blocked

COC(=O)CNC(=O)C(=O)OC [DMOG, dimethyloxalylglycine]
effect of co-treatment on HIF1α degradation triggered by TRAP1 inhibition (HIF1α): did not affect; also recorded: unaffected

CCCC[C@@H](C=O)NC(=O)[C@H](CC(C)C)NC(=O)[C@H](CC(C)C)NC(C)=O [ALLN] (Ac-Leu-Leu-[Nle]-aldehyde)
effect of co-treatment on HIF1α degradation triggered by TRAP1 inhibition (HIF1α): fully reversed
effect of co-treatment on calpain‐1 activation triggered by TRAP1 inhibition (calpain‐1): fully reversed

O=C(O)CN(CC(=O)O)c1ccccc1OCCOc1ccccc1N(CC(=O)O)CC(=O)O [BAPTA, 1,2‐bis (o‐aminophenoxy) ethane‐N, N, N', N'‐tetraacetic acid]
effect of co-treatment on HIF1α degradation triggered by TRAP1 inhibition (HIF1α): fully reversed
effect of co-treatment on calpain‐1 activation triggered by TRAP1 inhibition (calpain‐1): fully reversed

CO[C@H]1/C=C\C=C(/C)C(=O)NC2=CC(=O)C(NCCN(C)C)=C(C[C@@H](C)C[C@H](OC)[C@H](O)[C@@H](C)/C=C(\C)[C@@H]1OC(N)=O)C2=O [DMAG, 17‐Dimethyl‐aminothylamino‐17‐demethoxy‐geldanamycin]
stability of HIF1α (HIF1α; MIO-M1 cells, 6 hr under normoxia or hypoxia): did not affect
stress response protein Hsp70 level (cytoplasmic Hsp90): upregulated

CC(=O)N[C@@H](CSC(=O)[C@]1([C@@H](O)C(C)C)NC(=O)[C@H](C)[C@@H]1O)C(=O)O [lactacystin]
effect of co-treatment on HIF1α degradation triggered by TRAP1 inhibition (HIF1α): not effectively restored; also recorded: did not

gamitrinib
calpain enzyme activity (calpain): Calpain activation
cytosolic calcium concentration in Trap1−/− cells (Trap1 KO MIO-M1 cells; 3 μM gamitrinib or 1 μM MitoQ, 6 hr under hypoxia, Fluo-4 AM flow cytometry): did not affect
HIF1α expression in Trap1−/− cells (Trap1 KO MIO-M1 cells; 6 hr under hypoxia, western blotting): did not affect
calpain‐1 activation in Trap1−/− cells (Trap1 KO MIO-M1 cells; hypoxia): did not affect
